Measured values published in patent publication US11478528B2, “Antimicrobial peptides against Listeria monocytogenes” (MATERIAS S.r.l., priority 2017, dated 2022).
“Also recorded” adds a separate entry of the source. Ends that are not written are not given here.

Tests used:
[1] = system: L. monocytogenes biofilms; assay: Antibiofilm activity assay with SEM on steel discs; assay type: cell-based, Listeria monocytogenes; conditions: for cells on steel discs by SEM, 5000× image: 50 μM
Method: The activity of the Bac-amp1 and IDR-1018 peptides on L. monocytogenes biofilms was further investigated by scanning electron microscopy (SEM).
Specifically, in this example the three-dimensional biofilm architecture, developed on stainless steel materials, was studied.
The Aisi 304 stainless steel discs with a diameter of 14.5 mm (SS) were treated with 600 μl of standardized inoculum in the presence or absence of each of the peptides at the concentration of 25 μM or 50 μM, or with control medium, according to the same method of Example 4a and repeatedly washed in sterile PBS to remove planktonic cells and fixated on a new plate with 1 ml of Karnovsky fixative containing 5% glutaraldehyde, 4% paraformaldehyde in buffer 0.064 M (Electronic Microscopy Science, Hatfield, Pa., USA) for 1 hour at 4° C. Thereafter, the samples were washed in 0.1 M cacodylate sodium buffer at pH 7.4 (Electronic Microscopy Science, Hatfield, Pa., USA) and the fixated cells were dehydrated in a series of aqueous acetone solutions at different concentrations, in particular 25%, 50%, 75% and 100%. The samples were glued onto polished aluminium sample holders (Electronic Microscopy Science, Hatfield, Pa., USA) and uniformly vacuum coated with a 20-nm thick gold layer with the K950 high-vacuum Turbo Evaporator and a K 350 coupling (Emitech Ltd, Ashford, UK). The coated samples were examined at the JEOL 6700 FEG Field Emission Electron Microscope (SEM Jeol, City and State) with magnification from 1000× to 5000×. For each sample, a number of images (5-10), acquired as electronic images were randomly analyzed.

[2] = system: L. monocytogenes biofilms
Method: The antibiofilm activity of the Bac-amp1 and IDR-1018 peptides was tested by analyzing their ability to inhibit the formation of bacterial biofilms of L. monocytogenes.
The ability of peptides to prevent the formation of L. monocytogenes biofilms was determined according to the microplate assay described in G. Di Bonaventura et al. (2008, J Appl Microbiol 104(6):1552-61) with some modifications.
10 ml of bacterial suspension were then centrifuged the cell pellet was washed in PBS and diluted in BHI broth, reaching the concentration of about 10^3 CFU/ml of standardized inoculum.
The biofilm formation assays were conducted using as target surfaces the Aisi 304 stainless steel discs having a diameter of 14.5 mm (SS) used in the food industry as food contact surfaces. The discs were placed on 24-well Falcon® tissue culture plates, (Thermo Fisher Scientific Inc., Waltham, Mass., USA), with flat bottom and lid. Before use, the stainless steel discs were immersed in 10% acetone and left under weak stirring at room temperature for 30 min. After washing in ultrapure sterile water, the discs were incubated in ethanol 99.8% for 10 minutes under weak stirring and then washed in ultrapure sterile water, dried, packaged and sterilized at 121° C., 1 atm for 15 minutes.
In each set of experiments, 600 μl of standardized inoculum in the presence or absence of each of the peptides at the concentration of 12.5 μM, 25 μM or 50 μM were added to 24-well culture plates containing the previously treated stainless steel materials. BHI Broth was used as a negative control. The plates were incubated at 37° C. for 72 hours under static conditions. The cell count of L. monocytogenes, according to the ISO 11290-2:98 method. After incubation, the SS discs were washed three times with PBS and placed in a new plate to dry at 60° C. for 1 hour. […] Quantitative analysis of biofilm production was performed by adding 1 ml of 33% acetic acid, which removes the dye from the adhered cells. 200 μl of the obtained solution were transferred to a microplate and the crystal violet level (OD) was measured at 492 nm. […]

[3] = system: L. monocytogenes (LM2 food-isolated strain); assay: Antimicrobial activity of Bac-amp1 coupled gold nanoparticles (CFU count); assay type: cell-based, Listeria monocytogenes; conditions: 0.10 μM to 0.58 μM, 15×10^4 CFU/mL, 6 h at 37° C.
Method: The bactericidal efficacy of the functionalized gold nanoparticles prepared in Example 6 was determined against L. monocytogenes (LM2 food-isolated strain) and S. Typhimurium (ATCC 13311 strain) bacteria, which allowed the evaluation of the minimal bactericidal concentration (MBC50), corresponding to the lowest peptide concentration able to cause at least 50% reduction in the number of viable bacteria on agar plates.
L. monocytogenes and S. Typhimurium were grown at 37° C. in Half Fraser (Biorad-Italia) and BPW (Biomerieux-Italia) broths, respectively. […]
Data were determined by numbering the surviving colony forming units (CFU) in the Au—NPs-Bac-amp1 plates and in the Au—NPs plates and were expressed as percent decrease in the number of CFU with respect to the initial number of CFU. […]
Thus, in another set of experiments, the activity of Bac-amp1 coupled nanoparticles was determined incubating 15×10^4 CFU/mL (colony forming units/mL) of Listeria with increasing concentrations, ranging from 0.10 μM to 0.58 μM, of coupled nanoparticles (Au—NPs-Bac-amp1 plates), non-functionalized gold nanoparticles (Au—NPs plates) or free peptides (Bac-amp1 plates) for 6 h at 37° C. The number of viable colonies for the different plates at each concentration tested were counted.

[4] = pH stability assay by Circular Dichroism; conditions: for pH range with increase in the percentage of unordered random coil structure: 10 mM SDS, 24 hours at 37° C.
Method: The stability of the Bac-amp1 and IDR-1018 peptides was assessed by studying their secondary structure with Circular Dichroism (CD) spectroscopy in the presence of Sodium Dodecyl Sulfate (SDS) micelles at a concentration of 10 mM to mimic the condition of the cell membrane, in different temperature and pH conditions.
CD assays were performed with a Jasco J-810 Spectropolarimeter equipped with a thermostatted cuvette compartment. The samples were loaded into a 0.1 cm-long quartz cuvette (Hellma Analytics) and the spectrum was analyzed in the 190 nm to 250 nm range at temperatures of 15° C. or 90° C. for each sample.
The CD spectra were acquired at a scanning speed of 20 nm/min, and the recorded results represent an average of 5 scans. The spectra at 90° C. were collected at time zero and after 2 hours to evaluate the thermostability of peptides at high temperatures.
The average ellipticity of the residues ([θ], degrees cm^2 dmol^−1) was calculated using the following equation: [θ]=100θ/cn1 where θ represents ellipticity (m degrees), c is the concentration (mM) of the peptide, n is the number of residues. The secondary structure was calculated through the DICHROWEB site (Whitmore L and Wallace B A, 2004, Nucleic Acids Research 32: 668-673, Whitmore L and Wallace B A, 2008, Biopolymers 89:392-400, Lobley et al, 2002, Bioinformatics 18:211-212), using three different algorithms (SELCON3, CONTIN-LLe CDSSTR) (Sreerema N and Woody R W, 1993, Analytical Biochemistry 287:252-260; Sreerema N et al, 1999, Protein Science 8:370-380, Provencher S W and Glockner J, 1981, Biochemistry 20:33-37, Van Stokkum I H M et al, 1990, Analytical Biochemistry 191:110-118, Compton L A and Johnson W C, 1986, Analytical Biochemistry 155:155-167, Manavalan P and Johnson W C, 1987, Analytical Biochemistry 167:76-85, Sreerama N et al, 2000, Protein Science 8:370-380) and selecting as a comparison data set the SMP180 protein, which includes a high number of soluble and membrane proteins (Abdul-Gader A et al, 2011, Bioinformatics 27:1630-1636). […]

[5] = system: Listeria monocytogenes (ATCC strain and field strains SS1-SS5)
Method: The bactericidal activity of the Bac-amp1 and IDR-1018 peptides was evaluated against both Gram+ (Listeria monocytogenes and Staphylococcus aureus) and Gram− (Salmonella typhimurium) pathogenic bacteria.
Standard deviations for triple incubations of each plate and EC50 evaluation were determined using GraphPad Prism version 6.00 (Graph-Pad Software, La Jolla Calif. USA)
As regards Listeria monocytogenes, five field strains were added to the trial (wild strains) SS1 (serotype 4b), SS2 (serotype 4b), SS3 (serotype 4b), SS4 (serotype 4b), SS5 (serotype ½c) shown in Table 2. These strains were isolated from 200 samples of food waste, in particular fish products and milk derivatives, obtained from workbenches of food companies. All samples were collected in a context of official controls. Isolation of Listeria monocytogenes strains was performed according to the ISO-11290-1 standard. […]
In all the investigated experimental conditions, the plate counting method was used to estimate the bactericidal activity of the peptides. Specifically, the number of colonies grown on plates with agar seeded with bacterial suspensions in the absence or in the presence of individual dilutions of peptides was counted and compared. The standard deviations of the triple incubations of each plate were determined using statistical software. […]

S. thyphimurium (ATCC) = assay type: cell-based, Salmonella typhimurium; conditions: 6 h
Method: (§1) The evaluation of the minimum bactericidal concentration (MBC) was carried out as described in Bilikova et al, (2015, Peptides 68:190-196) and the evaluation of the effective concentration to reduce 50% of the bacterial population (EC50) of the two peptides was carried out with the micro-dilutions of the broth as described in Wang H X and Ng T B (2003, Peptides 24:969-972). Standard deviations for triple incubations of each plate and EC50 evaluation were determined using GraphPad Prism version 6.00 (Graph-Pad Software, La Jolla Calif. USA) Salmonella typhimurium A control stock suspension was prepared in which 10^3 CFU of S. typhimurium (ATCC13311 strain) were inoculated in 10 ml of BPW (Oxoid, Basingstoke, UK). […] Each dilution series included control plates inoculated with DMSO without the peptide and control plates with bacteria alone. In all the investigated experimental conditions, the plate counting method was used to estimate the bactericidal activity of the peptides. Specifically, the number of colonies grown on plates with agar seeded with bacterial suspensions in the absence or in the presence of individual dilutions of peptides was counted and compared. The standard deviations of the triple incubations of each plate were determined using statistical software. […]

S. aureus (NCTC) = assay type: cell-based, Staphylococcus aureus; conditions: 6 h
Method: as §1, with “Staphylococcus aureus” for “Salmonella typhimurium”, “(6571” for “(ATCC13311”, “BPW.” for “BPW (Oxoid, Basingstoke, UK).”, “Also in this case, the” for “Each”, “only. 50 μl of each bacterial suspension were poured onto petri dishes with blood agar or rabbit plasma fibrinogen agar and incubated for 20 hours at 37° C.” for “alone.”, “compared.” for “compared. The standard deviations of the triple incubations of each plate were determined using statistical software.”

[6] = Thermostability assay by Circular Dichroism; assay type: physicochemical; conditions: 15 to 90° C., 2 hours at 90° C., pH 6, 10 mM SDS
Method: The prepared samples were incubated for two hours at 15° C. or 90° C. A CD analysis was performed on samples stored at 15° C. and before and after incubation for two hours at 90° C.

Row | Substance | biofilm formation by SEM ([1]; 25 μM) | cells on steel discs by SEM, 5000× image [1] | MIC, antibiofilm activity ([2]; biofilms) [µM] | MBIC100 (minimum biofilm inhibiting concentration) ([2]; biofilms, 72 h) [µM] | reduction of microbial biomass ([2]; concentrations of 25-50 μM, 72 h, 37° C., steel discs) [%] | bacterial cell death versus concentration [3] | pH range with increase in the percentage of unordered random coil structure [4] | MIC, bactericidal activity against Listeria monocytogenes ([5]; ATCC strain and field strains SS1-SS5) | EC50 ([5]; ATCC strain and field strains SS1-SS5, 6 h) [µM] | EC50 (S. thyphimurium (ATCC)) [µM] | EC50 (S. aureus (NCTC)) [µM] | thermostability (CD spectra) [6] | conformational stability at different pH ([4]; pH 1.0 to 11.0)
1 | VRLIVKVRIWRR-NH2 [Bac-amp1, VRLIVKVRIWRR-NH2] | significantly reduces the formation of biofilm | near absence of cells | 25 to 50 | 25 to 50 | 100 | dose-dependent bacterial cell death | 1.0-4.0 | below 10 μM | 0.55 | 2.83 | 1.66 |  | 
2 | VRLIVAVRIWRR-NH2 [IDR-1018, VRLIVAVRIWRR] |  | a greater number of cells |  |  |  |  | 8.0-11.0 |  |  |  |  | high thermostability | higher conformational stability at pH 1.0; also recorded: greater conformational stability at pH 1.0
